Measured values reported in the NIST ThermoML archive (doi:10.1016/j.jct.2013.10.025).

Test: xn = mol fraction of the nth substance listed
Conditions: 101 kPa, Liquid; for viscosity: Capillary tube (Ostwald / Ubbelohde) method; for speed of sound: Sing-around technique in a fixed-path interferometer; for mass density: Vibrating tube method

CCCCCCO [hexan-1-ol] + C1CCOC1
Conditions	mass density [kg/m3]	speed of sound [m/s]	viscosity [mPa·s]
298.15 K, x2 = 0.0538	817.624	1301.1	3.778
298.15 K, x2 = 0.1144	820.377	1298.8	3.16
298.15 K, x2 = 0.1511	822.105	1297	2.887
298.15 K, x2 = 0.2009	824.537	1295	2.477
298.15 K, x2 = 0.256	827.327	1292.7	2.133
298.15 K, x2 = 0.3156	830.492	1291	1.855
298.15 K, x2 = 0.4199	836.41	1287.7	1.453
298.15 K, x2 = 0.5013	841.407	1285.1	1.199
298.15 K, x2 = 0.6029	848.183	1282.2	0.986
298.15 K, x2 = 0.7071	855.823	1279.3	0.786
298.15 K, x2 = 0.8042	863.667	1277.1	0.661
298.15 K, x2 = 0.9057	872.745	1276.4	0.559
303.15 K, x2 = 0.0538	813.958	1284.1	3.22
303.15 K, x2 = 0.1144	816.633	1281.5	2.737
303.15 K, x2 = 0.1511	818.311	1279.5	2.516
303.15 K, x2 = 0.2009	820.671	1277.3	2.148
303.15 K, x2 = 0.256	823.388	1275.1	1.901
303.15 K, x2 = 0.3156	826.467	1272.8	1.633
303.15 K, x2 = 0.4199	832.217	1269	1.325
303.15 K, x2 = 0.5013	837.071	1265.9	1.107
303.15 K, x2 = 0.6029	843.655	1262.2	0.904
303.15 K, x2 = 0.7071	851.067	1258.5	0.719
303.15 K, x2 = 0.8042	858.694	1255.6	0.619
303.15 K, x2 = 0.9057	867.506	1254	0.536
308.15 K, x2 = 0.0538	810.268	1267.1	2.728
308.15 K, x2 = 0.1144	812.863	1264	2.373
308.15 K, x2 = 0.1511	814.495	1261.9	2.13
308.15 K, x2 = 0.2009	816.788	1259.4	1.886
308.15 K, x2 = 0.256	819.426	1257.1	1.598
308.15 K, x2 = 0.3156	822.411	1254.3	1.422
308.15 K, x2 = 0.4199	827.995	1249.8	1.127
308.15 K, x2 = 0.5013	832.704	1246	0.95
308.15 K, x2 = 0.6029	839.095	1241.4	0.796
308.15 K, x2 = 0.7071	846.295	1236.7	0.64
308.15 K, x2 = 0.8042	853.69	1232.5	0.566
308.15 K, x2 = 0.9057	862.242	1230	0.47
313.15 K, x2 = 0.0538	806.544	1250.3	–
313.15 K, x2 = 0.1144	809.062	1246.9	–
313.15 K, x2 = 0.1511	810.645	1244.7	–
313.15 K, x2 = 0.2009	812.872	1242.7	–
313.15 K, x2 = 0.256	815.429	1239.8	–
313.15 K, x2 = 0.3156	818.321	1236.7	–
313.15 K, x2 = 0.4199	823.739	1231.7	–
313.15 K, x2 = 0.5013	828.306	1227.5	–
313.15 K, x2 = 0.6029	834.502	1222.5	–
313.15 K, x2 = 0.7071	841.483	1217	–
313.15 K, x2 = 0.8042	848.648	1212.4	–
313.15 K, x2 = 0.9057	856.935	1209	–

C1CCOC1 [tetrahydrofuran] + CCCCCCCCO
Conditions	mass density [kg/m3]	speed of sound [m/s]	viscosity [mPa·s]
298.15 K, x1 = 0.0541	823.522	1344.5	6.305
298.15 K, x1 = 0.1044	825.135	1341.3	5.403
298.15 K, x1 = 0.1535	826.78	1337.5	4.698
298.15 K, x1 = 0.205	828.609	1333.5	4.025
298.15 K, x1 = 0.2574	830.564	1329.8	3.477
298.15 K, x1 = 0.3054	832.449	1326.5	2.996
298.15 K, x1 = 0.4003	836.541	1319.6	2.307
298.15 K, x1 = 0.5004	841.464	1312.2	1.747
298.15 K, x1 = 0.6111	847.802	1302.9	1.271
298.15 K, x1 = 0.7032	853.984	1295.5	0.996
298.15 K, x1 = 0.8116	862.541	1287.9	0.747
298.15 K, x1 = 0.9048	871.362	1281.7	0.589
303.15 K, x1 = 0.0541	819.992	1327.7	5.227
303.15 K, x1 = 0.1044	821.552	1324.3	4.562
303.15 K, x1 = 0.1535	823.145	1320.4	3.988
303.15 K, x1 = 0.205	824.915	1316	3.395
303.15 K, x1 = 0.2574	826.809	1312.4	3.014
303.15 K, x1 = 0.3054	828.634	1308.7	2.602
303.15 K, x1 = 0.4003	832.585	1301.4	2.089
303.15 K, x1 = 0.5004	837.343	1293.4	1.566
303.15 K, x1 = 0.6111	843.471	1283.4	1.173
303.15 K, x1 = 0.7032	849.444	1275.5	0.931
303.15 K, x1 = 0.8116	857.718	1266.9	0.715
303.15 K, x1 = 0.9048	866.235	1259.7	0.566
308.15 K, x1 = 0.0541	816.44	1310.7	4.208
308.15 K, x1 = 0.1044	817.948	1307.3	3.709
308.15 K, x1 = 0.1535	819.488	1303	3.217
308.15 K, x1 = 0.205	821.202	1298.8	2.779
308.15 K, x1 = 0.2574	823.029	1294.7	2.46
308.15 K, x1 = 0.3054	824.796	1290.9	2.176
308.15 K, x1 = 0.4003	828.614	1283.1	1.748
308.15 K, x1 = 0.5004	833.216	1274.6	1.348
308.15 K, x1 = 0.6111	839.116	1264.1	1.014
308.15 K, x1 = 0.7032	844.874	1255.2	0.819
308.15 K, x1 = 0.8116	852.874	1244.9	0.632
308.15 K, x1 = 0.9048	861.083	1237	0.514
313.15 K, x1 = 0.0541	812.862	1294.2	–
313.15 K, x1 = 0.1044	814.315	1290.6	–
313.15 K, x1 = 0.1535	815.803	1286.2	–
313.15 K, x1 = 0.205	817.465	1282	–
313.15 K, x1 = 0.2574	819.222	1277.6	–
313.15 K, x1 = 0.3054	820.932	1273.8	–
313.15 K, x1 = 0.4003	824.625	1265.5	–
313.15 K, x1 = 0.5004	829.064	1256.5	–
313.15 K, x1 = 0.6111	834.743	1245.4	–
313.15 K, x1 = 0.7032	840.294	1236.1	–
313.15 K, x1 = 0.8116	848	1225	–
313.15 K, x1 = 0.9048	855.903	1216.3	–
